Test results reported in patent publication US20240352020A1, “PYRAZOLE-CONTAINING CBP/CATENIN ANTAGONISTS AND USES THEREOF” (3+2 PHARMA, LLC, priority 2021, published 2024).

How the values were obtained:
CBP/β-Catenin = assay: SuperTOPFLASH cell-based luciferase assay (Wnt-driven Luciferase Activity in Stably Transfected Cell Line, Hek293, STF1.1)
Procedure: SuperTOPFLASH Cell-based Luciferase Assay. Hek-293, STF1.1 cells are maintained in DMEM, 10% FBS, Pen-Strep supplemented with 200 μg/mL G418. On the day prior to assay, cells are split into a white, opaque 96-well plate at 10,000 cells per well in 50 μL of complete medium without G418 (for screening of Wnt-signaling inhibitors, G418 can be left out during screening process). After allowing the cells to stabilize and attach overnight, 40 μL of complete medium (without G418) containing 2.5× final concentration of compound or DMSO control is added to the cells and allowed to incubate for 1 hour at 37° C., 5% CO2 prior to adding 10 μL of a 100 mM LiCl solution prepared in complete medium (without G418). After 24 hours, 100 μL of BrightGlo (Promega, Cat. #: G7573) is added to each well and the plate is shaken for 5 minutes prior to reading on the Perkin-Elmer EnVision Plate Reader. For example, on the day prior to assay: cells are split into a white opaque 96-well plate at 10,000 cells per well in 50 μL of complete growth medium; the plate is incubated overnight at 37° C., 5% CO2 and the cells allowed to attach; the next day inhibitors to be tested are prepared in complete growth medium at 2.5× the desired final concentration (all conditions are done in duplicates), and 40 μL of the medium containing the 2.5× concentration of compound is added to each well (include 2 wells for stimulation control, 2 wells for DMSO control, and wells for the positive control ICG-001 (e.g., 2, 5, and 10 micromolar)); once all inhibitors and controls are added, incubate the plate for 1 hour at 37° C., 5% CO2 (while plate is incubating, prepare fresh 100 mM LiCl in complete growth medium); after 1 hour, the plate is removed from the incubator and 10 μL of the medium containing 100 mM LiCl are added to each well (except for the two wells of the unstimulated control, to which […] of just complete medium is added); the plate is incubated for 24 hours at 37° C., 5% CO2; after 24 hours, 100 microliters of BrightGlo (Promega, Cat. #: G7573) is added to each well, the plate is shaken for 5 minutes to ensure complete lysis, and the plate is then read on a Perkin-Elmer EnVision 96-well plate reader.

[1] = system: T memory stem cells (SCM) and central memory T-cells (CM); conditions: ART-suppressed SIVmac251-infected RMs; cited from earlier work
[2] = intravenous, patients with HCV cirrhosis, cited from earlier work
[3] = FIG. 1, compounds 0.078 μM to 10 μM, ICG-001 positive control at 0.62-20 μM
[4] = FIG. 2, compounds 0.625 μM to 5 μM, ICG-001 positive control at 2.5, 5 and 10 μM
[5] = 10 and 40 mg/m^2/day for 12 weeks

For `O=C1[C@H](Cc2ccc(O)cc2)N2C(=O)CN(Cc3cnn(-c4ccccc4)c3)N(C(=O)NCc3ccccc3)[C@H]2CN1Cc1cccc2ncccc12` [Compound 1, (6S,9aS)—N-benzyl-6-(4-hydroxybenzyl)-4,7-dioxo-2-((1-phenyl-1H-pyrazol-4-yl)methyl)-8-(quinolin-5-ylmethyl)octahydro-1H-pyrazino[2,1-c][1,2,4]triazine-1-carboxamide], the “CBP/β-Catenin inhibition activity: potency compared with ICG-001” value (CBP/β-Catenin; [3]) was “greater potency than that of ICG-001” and the “CBP/β-Catenin inhibition activity: potency compared between compounds 1 and 2” value (CBP/β-Catenin; FIG. 1, concentrations between 0.078 μM and 10 μM) was “greater potency than that of compound 2”.

In the case of `O=C1[C@H](Cc2ccc(O)cc2)N2C(=O)CN(Cc3cnn(-c4ccccc4)c3Br)N(C(=O)NCc3ccccc3)[C@H]2CN1Cc1cccc2ncccc12` [Compound 2, (6S,9aS)—N-benzyl-2-((5-bromo-1-phenyl-1H-pyrazol-4-yl)methyl)-6-(4-hydroxybenzyl)-4,7-dioxo-8-(quinolin-5-ylmethyl)octahydro-1H-pyrazino[2,1-c][1,2,4]triazine-1-carboxamide], the “CBP/β-Catenin inhibition activity: potency compared with ICG-001” value (CBP/β-Catenin; [3]) is reported as “greater potency than that of ICG-001”.

In the case of `O=C1[C@H](Cc2ccc(O)cc2)N2C(=O)CN(Cc3ccn(-c4ccccc4)n3)N(C(=O)NCc3ccccc3)[C@H]2CN1Cc1cccc2cccnc12` [Compound 3, (6S,9aS)—N-benzyl-6-(4-hydroxybenzyl)-4,7-dioxo-2-((1-phenyl-1H-pyrazol-3-yl)methyl)-8-(quinolin-8-ylmethyl)octahydro-1H-pyrazino[2,1-c][1,2,4]triazine-1-carboxamide], the “CBP/β-Catenin inhibition activity: potency compared with ICG-001” value (CBP/β-Catenin; [4]) is reported as “greater potency than that of ICG-001”.

With `O=C1[C@H](Cc2ccc(O)cc2)N2C(=O)CN(Cc3cnn(-c4ccccc4)c3)N(C(=O)NCc3ccccc3)[C@H]2CN1Cc1cccc2cccnc12` [Compound 4, (6S,9aS)—N-benzyl-6-(4-hydroxybenzyl)-4,7-dioxo-2-((1-phenyl-1H-pyrazol-4-yl)methyl)-8-(quinolin-8-ylmethyl)octahydro-1H-pyrazino[2,1-c][1,2,4]triazine-1-carboxamide] the “CBP/β-Catenin inhibition activity: potency compared with ICG-001” value (CBP/β-Catenin; [4]) was “greater potency than that of ICG-001” and the “CBP/β-Catenin inhibition activity: potency compared between compounds 3 and 4” value (CBP/β-Catenin; FIG. 2, concentrations between 0.625 μM and 5 μM) was “greater potency than that of compound 3”.

For `C[C@H]1[C@H]2N(C(=O)CN(C)N2C(=O)NCc2ccccc2)[C@@H](Cc2ccc(OP(=O)(O)O)cc2)C(=O)N1Cc1cccc2cccnc12` [PRI-724], the “Proliferation of T memory stem cells (SCM) and central memory (CM) T-cells” value [1] is given as “decrease proliferation”, the Safety ([2]; 10 and 40 mg/m^2/day for 12 weeks (1 week on and 1 week off)) is given as “appeared to be safe” and the “Liver histology and Child Pugh scores” value [2, 5] is given as “improvement in liver histology and Child Pugh scores in several patients”. For the same compound, the “Plasma exposure of the drug” value [2, 5] was “dose-dependent plasma exposure”.
